Data taken from patent US20220160712A1, “METHODS OF TREATING RHEUMATOID ARTHRITIS AND FOR PREDICTING THE RESPONSE TO METHOTREXATE” (CHAN ZUCKERBERG BIOHUB, INC., priority 2020, published 2022).

System: gut microbiome
Experiment: RA patients on oral MTX: 16S-seq and metagenomic sequencing of stool at baseline and 1 month; clinical response
Assay type: in vivo, human
Settings: for number of gene families differentially abundant over time: metagenomic sequencing n=17
Method: Consecutive patients from the New York University Langone Medical Center's rheumatology clinics and offices were screened for the presence of RA based on ACR criteria (Aletaha et al., 2010). After informed consent was signed, each patient's medical history (according to chart review and interview/questionnaire), diet, and medications were determined. A screening musculoskeletal examination and laboratory assessments were also performed or reviewed. All RA patients who met the study criteria were offered enrollment. The criteria for inclusion in the study required that patients meet the American College of Rheumatology/European League Against Rheumatism 2010 classification criteria for RA (Aletaha et al., 2010), including seropositivity for rheumatoid factor and/or anti-citrullinated protein antibodies, and that all subjects be age 18 years or older. New-onset RA was defined as disease duration of a minimum of 6 weeks and up to 6 months since diagnosis, and absence of any treatment with disease-modifying anti-rheumatic drugs, biologic therapy or steroids (ever). The exclusion criteria applied to all groups were as follows: recent (<3 months prior) use of any antibiotic therapy, current extreme diet (e.g., parenteral nutrition or macrobiotic diet), known inflammatory bowel disease, known history of malignancy, current consumption of probiotics, any gastrointestinal tract surgery leaving permanent residua (e.g., gastrectomy, bariatric surgery, colectomy), or significant liver, renal, or peptic ulcer disease. This study was approved by the Institutional Review Board of New York University School of Medicine protocols #09-0658 and as previously published (Scher et al., 2013). All new onset rheumatoid arthritis (NORA) patients were recruited using established protocols from a previously described study (Scher et al., 2013). Patients received oral MTX at standard of care doses as prescribed by their treating rheumatologists. Stool samples were collected at baseline and 1 month after MTX initiation and metadata were obtained at baseline and 4 months after therapy initiation. Clinical and demographic data was de-identified and recorded in RedCap by the designated study personnel. Clinical responder status (MTX-R) was defined a priori as any NORA patient whose DAS28 score was greater than 2 at baseline and improved by at least 1.8 by month 4 post-treatment. DNA was extracted from human fecal samples (n=23 patients, 46 stool samples) as previously described (Scher et al., 2013), using the MoBio Powersoil DNA extraction kit, based on cell membrane disruption by high-speed shaking in the presence of beads. The V4 hypervariable region of bacterial 16S ribosomal RNA (rRNA) was performed using a MiSeq […] platform (150-bp read length, paired-end protocol) at the New York University Genome Technology Center as previously described (Manasson et al., 2018). For each sample, fastq files are available in NCBI's Sequence Read Archive (SRA), accession number PRJNA656577.
Stool samples from 17 RA patients underwent DNA extraction using ZymoBIOMICS 96 MagBead DNA Kit (Cat #D4302) as per the manufacturer's protocol. Sequencing libraries were generated using the Nextera DNA Flex Library Kit (Illumina, #20018705) and Nextera Compatible Unique Dual Indices—Set A primers (Illumina, #20027213). Library concentrations were normalized using PicoGreen (Quant-It dsDNA; Life Technologies) and pooled for sequencing on the NovaSeq using S1 or S2 platform at the Chan Zuckerberg Biohub.
Reads that were not already demultiplexed were demultiplexed using QIIME (Caporaso et al., 2010) v1.9.1 (split_libraries_fastq.py). For all reads except NYU RA patient samples, QIIME2 (Bolyen et al., 2019)(v 2020.2) was used to trim reads, denoise the data, and create a feature table using the following commands: qiime cutadapt trim-paired, qiime dada2 denoise-paired, qiime feature-table filter-samples. […]

CN(Cc1cnc2nc(N)nc(N)c2n1)c1ccc(C(=O)N[C@@H](CCC(=O)O)C(=O)O)cc1 [MTX, methotrexate]
number of MTX responders (MTX-R) (23 RA patients, decrease in DAS28 of ≥1.8 and continued oral MTX without added DMARDs or biologics): 8 | number of MTX non-responders (MTX-NR) (23 RA patients, same response definition): 15 | number of KOs with significant differences in abundance (MTX-NR, q<0.25, MaAsLin2): 5 | number of gene families with significant differences in abundance (MTX-NR, q<0.25, MaAsLin2): 508 | number of gene families with significant shift (MTX-R, q<0.25, MaAsLin2): 2 | change in Bacteroidetes over time in MTX-R relative to MTX-NR (baseline vs 1 month, Wilcoxon rank-sum): significant decrease | richness, community structure, abundance of bacterial phyla, genera, or ASVs, pre- vs. post MTX (entire cohort n=23, baseline vs 1 month, oral MTX standard of care): no significant differences | number of gene families differentially abundant over time (MaAsLin2 q-value<0.25): 96 | number of gene families differentially abundant over time (nominal p-value<0.05): 6,409 | number of KEGG orthologs (KOs) differentially abundant (nominal p<0.05): 334 | number of KEGG orthologs (KOs) differentially abundant (q<0.25): 5
